Reference: PubChem BioAssay AID330 (DTP/NCI, 2004)
Where “and” joins values, the source holds several entries; their conditions need not be identical. Equal values may be shown once. Inconclusive results and toxic doses are left out. Rule for the calls: active = survival T/C of 150% or more; inactive = T/C below 125% in these data.

Tested on: P388 leukemia ip, CD2F1 mice, survival T/C
Experiment: NCI In Vivo Anticancer Drug Screen. Data for tumor model P388 Leukemia (intraperitoneal) in CD2F1 (CDF1) mice
Details: endpoint: median survival time, higher = longer survival
Method in brief: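 Mice carrying the transplanted tumor received test compound or vehicle. Survival was recorded in each group, and the value is the treated-group measurement divided by that of the vehicle-treated control group.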

[1] = dose: 50.0 mg/kg/injection, schedule: Q01DX005 (ip), vehicle: saline
[2] = dose: 100.0 mg/kg/injection, schedule: Q01DX005 (ip), vehicle: saline
[3] = dose: 12.5 mg/kg/injection, schedule: Q01DX009 (ip), vehicle: distilled water + Tween-80
[4] = dose: 25.0 mg/kg/injection, schedule: Q01DX009 (ip), vehicle: distilled water + Tween-80
[5] = dose: 50.0 mg/kg/injection, schedule: Q01DX009 (ip), vehicle: distilled water + Tween-80
[6] = dose: 100.0 mg/kg/injection, schedule: Q01DX009 (ip), vehicle: distilled water + Tween-80
[7] = dose: 50.0 mg/kg/injection, schedule: Q01DX009 (ip), vehicle: saline with Tween-80
[8] = dose: 100.0 mg/kg/injection, schedule: Q01DX009 (ip), vehicle: saline with Tween-80
[9] = dose: 200.0 mg/kg/injection, schedule: Q01DX009 (ip), vehicle: saline with Tween-80
[10] = dose: 60.0 mg/kg/injection, schedule: Q01DX005 (ip), vehicle: Klucel (hydroxypropylcellulose) (HPC)
[11] = dose: 120.0 mg/kg/injection, schedule: Q01DX005 (ip), vehicle: Klucel (hydroxypropylcellulose) (HPC)
[12] = dose: 240.0 mg/kg/injection, schedule: Q01DX005 (ip), vehicle: Klucel (hydroxypropylcellulose) (HPC)
[13] = dose: 6.25 mg/kg/injection, schedule: Q01DX009 (ip), vehicle: saline
[14] = dose: 12.5 mg/kg/injection, schedule: Q01DX009 (ip), vehicle: saline
[15] = dose: 50.0 mg/kg/injection, schedule: Q01DX009 (ip), vehicle: saline
[16] = dose: 100.0 mg/kg/injection, schedule: Q01DX009 (ip), vehicle: saline
[17] = dose: 200.0 mg/kg/injection, schedule: Q01DX009 (ip), vehicle: saline

Measured: T/C

CC(C)NCC(O)c1ccc(NS(C)(=O)=O)cc1 (stereo not drawn)
inactive: [1] 108 % of control | [2] 100 % of control | dose: 200.0 mg/kg/injection, schedule: Q01DX005 (ip), vehicle: saline 104 % of control

O=C1C(Cl)=C(Cl)C(Cl)(Cl)C(Cl)=C1Cl
inactive: dose: 25.0 mg/kg/injection, schedule: Q01DX001 (ip), vehicle: Klucel (hydroxypropylcellulose) (HPC) 99 % of control | dose: 50.0 mg/kg/injection, schedule: Q01DX001 (ip), vehicle: Klucel (hydroxypropylcellulose) (HPC) 93 % of control | dose: 100.0 mg/kg/injection, schedule: Q01DX001 (ip), vehicle: Klucel (hydroxypropylcellulose) (HPC) 93 % of control

O=C1c2ccccc2C(O)(C(=O)O)C1(O)CC=C(Cl)Cl (stereo not drawn)
inactive: [3] 103 % of control | [4] 99 % of control | [5] 91 % of control | [6] 95 % of control | dose: 200.0 mg/kg/injection, schedule: Q01DX009 (ip), vehicle: distilled water + Tween-80 91 % of control

C1CCC2(CC1)N=C1CCCCC1S2 (stereo not drawn)
inactive: dose: 6.25 mg/kg/injection, schedule: Q01DX005 (ip), vehicle: saline + Tween-80 + alcohol 106 % of control | dose: 12.5 mg/kg/injection, schedule: Q01DX005 (ip), vehicle: saline + Tween-80 + alcohol 98 % of control | dose: 25.0 mg/kg/injection, schedule: Q01DX005 (ip), vehicle: saline + Tween-80 + alcohol 104 % of control

COC(C(OC)N1CCOCC1)N1CCOCC1 (stereo not drawn)
inactive: [7] 100 % of control | [8] 104 % of control | [9] 113 % of control

Cc1c(-c2ccccc2)noc1-c1ccccc1
inactive: dose: 100.0 mg/kg/injection, schedule: Q04DX003 (ip), vehicle: saline 106 % of control | dose: 200.0 mg/kg/injection, schedule: Q04DX003 (ip), vehicle: saline 102 % of control | dose: 400.0 mg/kg/injection, schedule: Q04DX003 (ip), vehicle: saline 101 % of control

S=c1nc(-c2nc(=S)[nH]c3c2CCCCCCCCCC3)c2c([nH]1)CCCCCCCCCC2
inactive: [10] 99 % of control | [11] 92 % of control | [12] 93 % of control

COc1cc(/C=N\N=c2\sc3ccccc3n2C)ccc1OCCO
inactive: dose: 60.0 mg/kg/injection, schedule: Q01DX005 (ip), vehicle: saline with Tween-80 92 % of control | dose: 120.0 mg/kg/injection, schedule: Q01DX005 (ip), vehicle: saline with Tween-80 91 % of control | dose: 240.0 mg/kg/injection, schedule: Q01DX005 (ip), vehicle: saline with Tween-80 91 % of control

COc1cc2c(cc1OCc1ccccc1)C(Cc1cc(Br)sc1Br)=NCC2
inactive: dose: 50.0 mg/kg/injection, schedule: Q01DX005 (ip), vehicle: Klucel (hydroxypropylcellulose) (HPC) 88 % of control | dose: 100.0 mg/kg/injection, schedule: Q01DX005 (ip), vehicle: Klucel (hydroxypropylcellulose) (HPC) 90 % of control | dose: 200.0 mg/kg/injection, schedule: Q01DX005 (ip), vehicle: Klucel (hydroxypropylcellulose) (HPC) 92 % of control

O=C(OC1(c2nccc3ccccc23)CCN(CCc2ccccc2)CC1)c1ccccc1
inactive: [13] 105 % of control | [14] 99 % of control | dose: 25.0 mg/kg/injection, schedule: Q01DX009 (ip), vehicle: saline 97 % of control

NCCc1nc(-c2nc(C(=O)Nc3ccccc3)cs2)cs1
inactive: [3] 100 % of control | [4] 103 % of control | [5] 103 % of control | [6] 100 % of control

O=c1nc2sccn2c2ncccc12
inactive: dose: 3.75 mg/kg/injection, schedule: Q01DX005 (ip), vehicle: saline with Tween-80 96 % of control | dose: 7.5 mg/kg/injection, schedule: Q01DX005 (ip), vehicle: saline with Tween-80 94 % of control | dose: 15.0 mg/kg/injection, schedule: Q01DX005 (ip), vehicle: saline with Tween-80 88 % of control

CN1CCC(CC2CCCCN2)CC1 (stereo not drawn)
inactive: dose: 6.25 mg/kg/injection, schedule: Q01DX009 (ip), vehicle: distilled water + Tween-80 99 % of control | [3] 105 % of control and 95 % of control | [4] 98 % of control and 122 % of control | [5] 108 % of control and 116 % of control | [6] 103 % of control

C(=NC12CC3CC(CC(C3)C1)C2)C12CC3CC(CC(C3)C1)C2
inactive: [7] 99 % of control | [8] 102 % of control | [9] 96 % of control

O=C1C2=C(Nc3ccccc3N2)OC1c1ccc(C2OC3=C(Nc4ccccc4N3)C2=O)cc1 (stereo not drawn)
inactive: [10] 88 % of control | [11] 88 % of control | [12] 87 % of control

COc1ccc(-c2cc(-c3ccccc3)c(-c3ccccc3)nn2)cc1CN1CCOCC1
inactive: [7] 99 % of control | [8] 100 % of control | [9] 95 % of control

COc1cc(/C=C/c2cc(OC)c(OC)c(OC)c2)oc(=O)c1
inactive: dose: 50.0 mg/kg/injection, schedule: Q01DX009 (ip), vehicle: Klucel (hydroxypropylcellulose) (HPC) 98 % of control | dose: 100.0 mg/kg/injection, schedule: Q01DX009 (ip), vehicle: Klucel (hydroxypropylcellulose) (HPC) 104 % of control | dose: 200.0 mg/kg/injection, schedule: Q01DX009 (ip), vehicle: Klucel (hydroxypropylcellulose) (HPC) 99 % of control

CCC[N+]1(CC)CCCCC1
inactive: dose: 3.12 mg/kg/injection, schedule: Q01DX009 (ip), vehicle: saline 103 % of control | [13] 99 % of control | [14] 100 % of control

Cc1ncc(C[n+]2csc(CCO)c2C)c(N)n1
inactive: [15] 108 % of control | [16] 105 % of control | [17] 97 % of control

Cc1cc(C(=O)Nc2ccc(NC3=NCCN3)cc2)c(C)cc1C(=O)Nc1ccc(NC2=NCCN2)cc1
inactive: dose: 12.5 mg/kg/injection, schedule: Q01DX005 (ip), vehicle: Klucel (hydroxypropylcellulose) (HPC) 101 % of control | dose: 25.0 mg/kg/injection, schedule: Q01DX005 (ip), vehicle: Klucel (hydroxypropylcellulose) (HPC) 106 % of control

O=S(=O)(c1ccc(N=Cc2cccs2)cc1)c1ccc(N=Cc2cccs2)cc1
inactive: [15] 99 % of control | [16] 98 % of control | [17] 91 % of control and 95 % of control

Cc1c2oc3c(C)ccc(C(=O)NC(C(=O)NC(C(=O)NCCO)C(C)C)C(C)O)c3nc-2c(C(=O)NC(C(=O)NC(C(=O)NCCO)C(C)C)C(C)O)c(N)c1=O (stereo not drawn)
inactive: dose: 0.05 mg/kg/injection, schedule: Q01DX009 (ip), vehicle: water 99 % of control | dose: 0.1 mg/kg/injection, schedule: Q01DX009 (ip), vehicle: water 100 % of control | dose: 0.2 mg/kg/injection, schedule: Q01DX009 (ip), vehicle: water 100 % of control | dose: 0.4 mg/kg/injection, schedule: Q01DX009 (ip), vehicle: water 97 % of control | dose: 0.8 mg/kg/injection, schedule: Q01DX009 (ip), vehicle: water 98 % of control | dose: 1.6 mg/kg/injection, schedule: Q01DX009 (ip), vehicle: water 88 % of control and 94 % of control | dose: 3.2 mg/kg/injection, schedule: Q01DX009 (ip), vehicle: water 92 % of control | dose: 6.4 mg/kg/injection, schedule: Q01DX009 (ip), vehicle: water 110 % of control | dose: 12.8 mg/kg/injection, schedule: Q01DX009 (ip), vehicle: water 97 % of control

NC(N)=NCCSCc1ccc2ccccc2n1
inactive: [1] 94 % of control | [2] 101 % of control
